Like-named read-outs stand apart in the source and are kept apart here.
Columns and labels:
[1] = target: N-terminal active peptide segment (MI-N899) of POLQ with ATPase activity (Homo sapiens (Human), UniProt O75417); assay: POLQ enzyme activity inhibition experiment (ATPase, NADH-coupled, OD 340 nm); format: biochemical; settings: 100 nM POLQ (N), 100 μM ATP, 300 nM dT50
Method: The Envision microplate reader from Perkin Elmer Inc was used to measure the reduction of OD value of NADH at 340 nm, thus reflecting the enzyme activity. Experimental method: The POLQ enzyme was diluted to 100 nM with a reaction buffer (20 mM Tris HCl (pH 7.80), 80 mM KCl, 10 mM MgCl2, 1 mM DTT, 0.01% w/v bovine serum albumin, 0.01% v/v Tween-20, and 5% v/v glycerol). The compounds to be tested were diluted to different concentrations in dimethyl sulfoxide (DMSO) using the Echo 650 pipetting system, and transferred to a 384-well plate, 20 μL/well of 100 nM POLQ was added, and the mixture was incubated at room temperature for 15 minutes. A reaction mixture solution was formulated, and the concentration of each component in the reaction mixture solution was: 100 μM ATP, 300 nM […], 300 μM NADH, 6 mM PEP, 10 U/mL lactate dehydrogenase and 20 U/mL pyruvate kinase. 20 μL/well of reaction mixture solution was added to start the enzyme reaction. […] The concentration range was from 10 μM to 0.0005 μM, and the final concentration of DMSO in the system was 0.2% v/v. The 384-well plate was reacted at room temperature for 20 minutes, and then the OD value at 340 nm was read with an Envision microplate reader. The inhibition rate was calculated, and XLfit software was used to perform fitting to obtain IC50 of the compounds. In the experiment, a blank group and a DMSO group were set up, respectively.

DLD-1 BRCA2 (−/−) cells = assay: Inhibition of tumour cell proliferation, 7 days, CTG; format: cell-based; settings: Homo sapiens, read-out: DLD-1 BRCA2 (−/−) IC50
Method: (§1) Brief introduction to the experimental principle: The compounds were co-incubated with tumour cells for 7 days, and then a CTG kit from Promega Inc was used to quantify ATP in viable cells, thus reflecting the effect of the compounds on tumour cell proliferation.
(§2) Experimental method: DLD-1 parental cells or DLD-1 BRCA2 (−/−) cells were diluted with RPMI 1640 medium containing 10% FBS, and then added to a 96-well plate (90 μL/well), with the number of cells being 600 cells/well or 1200 cells/well, respectively, and cultured overnight in a 37° C., 5% CO2 incubator. The compounds to be tested were diluted to different concentrations in dimethyl sulfoxide (DMSO), and then added to a 96-well plate. The final concentration of the compounds in the reaction system started from 25 μM, and was subjected to 4-fold gradient dilution. The concentration range of the compounds was from 25 μM to 0.0004 μM, and the final concentration of DMSO was 0.25% v/v. After 7 days of incubation, 50 μL/well CTG was added, and the mixture was incubated at room temperature for 10 minutes. Subsequently, the luminescence (Lum) signal value was read with an Envision microplate reader, and the inhibition rate and half inhibitory concentration (IC50) were calculated.
(§3) The inhibition rate was calculated, and XLfit software was used to perform fitting to obtain IC50 of the compounds.
(§4) In the experiment, a blank well and a DMSO well were set up, respectively.
(§5) Inhibition rate=100*(Lummax−Lumcompound)/(Lummax−Lummin)%, • where Lummax refers to the luminescence signal value of the well containing cells and 0.25% v/v DMSO; Lumcompound refers to the luminescence signal value of the well containing the compound and cells; and Lummin refers to the luminescence signal value of the well containing the medium and 0.25% v/v DMSO.

DLD-1 parental cells = assay: as above; format: cell-based; settings: Homo sapiens, read-out: DLD-1 parental cell IC50
Method: as §1, §2, §3, §4, §5

[2] = 168 h, DLD-1 BRCA2 (−/−) cells, 7 days of incubation, CTG
[3] = 168 h, DLD-1 parental cells, 7 days of incubation, CTG

N-terminal active peptide segment (MI-N899) of POLQ with ATPase activity, sequence (O75417 1-899 limits assumed): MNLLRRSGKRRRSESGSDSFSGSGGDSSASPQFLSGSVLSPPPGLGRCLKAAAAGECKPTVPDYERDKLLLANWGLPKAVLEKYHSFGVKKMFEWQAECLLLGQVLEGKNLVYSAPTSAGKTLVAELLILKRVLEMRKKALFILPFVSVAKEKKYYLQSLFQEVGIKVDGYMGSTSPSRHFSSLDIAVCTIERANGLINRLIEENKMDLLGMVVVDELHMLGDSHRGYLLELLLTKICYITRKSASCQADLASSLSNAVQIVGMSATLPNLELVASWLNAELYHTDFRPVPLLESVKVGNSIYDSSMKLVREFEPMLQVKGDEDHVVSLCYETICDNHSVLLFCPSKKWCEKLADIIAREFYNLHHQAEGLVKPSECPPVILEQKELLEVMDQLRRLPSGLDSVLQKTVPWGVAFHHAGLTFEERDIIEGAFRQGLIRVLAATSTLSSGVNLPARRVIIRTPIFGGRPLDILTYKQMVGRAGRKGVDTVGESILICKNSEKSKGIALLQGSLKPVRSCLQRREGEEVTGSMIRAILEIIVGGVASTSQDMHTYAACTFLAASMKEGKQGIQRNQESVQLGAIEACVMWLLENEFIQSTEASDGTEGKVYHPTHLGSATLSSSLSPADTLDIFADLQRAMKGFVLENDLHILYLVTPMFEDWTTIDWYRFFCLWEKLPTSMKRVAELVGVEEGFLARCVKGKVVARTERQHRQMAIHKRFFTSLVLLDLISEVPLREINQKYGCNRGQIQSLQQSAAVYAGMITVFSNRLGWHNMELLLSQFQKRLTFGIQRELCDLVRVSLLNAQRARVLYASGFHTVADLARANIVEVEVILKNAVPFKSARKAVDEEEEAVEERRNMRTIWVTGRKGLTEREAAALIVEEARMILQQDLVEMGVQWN

IC50 [1] [nM] | IC50 (DLD-1 BRCA2 (−/−) cells; [2]) [nM] | Compound | IC50 (DLD-1 parental cells; [3]) [nM] | IC50 (DLD-1 BRCA2 (−/−) cells; DLD-1, 168 h) [nM] | IC50 (DLD-1 parental cells; DLD-1, 168 h) [nM]
< 100 | < 200 | COc1ccccc1-c1cnccc1C(=O)Nc1nc2ncc(-c3ccc(C#N)cc3)nc2s1 [Compound 9, N-(6-(4-cyanophenyl)thiazolo[4,5-b]pyrazin-2-yl)-3-(2-methoxyphenyl)pyridine-4-carboxamide] | > 10000 |  | 
< 100 | 200 to 500 | COc1ccccc1-c1ccncc1C(=O)Nc1nc2ncc(-c3ccc(C#N)cc3)nc2s1 [Compound 16, N-(6-(4-cyanophenyl)thiazolo[4,5-b]pyrazin-2-yl)-4-(2-methoxyphenyl)nicotinamide] | > 10000 |  | 
< 100 | < 200 | COc1cnc(Cl)cc1-c1cc(C)ncc1C(=O)Nc1nc2ncc(-c3ccc(C#N)cc3)nc2s1 [Compound 20, 2′-chloro-N-(6-(4-cyanophenyl)thiazolo[4,5-b]pyrazin-2-yl)-5′-methoxy-6-methyl-[4,4′-bipyridine]-3-carboxamide] | > 10000 |  | 
< 100 | < 200 | COc1cnc(C)cc1-c1cc(C)ncc1C(=O)Nc1nc2ncc(-c3ccc(C#N)cc3)nc2s1 [Compound 21, N-(6-(4-cyanophenyl)thiazolo[4,5-b]pyrazin-2-yl)-5′-methoxy-2′,6-dimethyl-[4,4′-bipyridine]-3-carboxamide] | > 10000 |  | 
< 100 | < 200 | COc1cnc(C)cc1-c1cc(C)ncc1C(=O)Nc1nc2ncc(-c3ccc(C4CC4)cn3)nc2s1 [Compound 24, N-(6-(5-cyclopropylpyridin-2-yl)thiazolo[4,5-b]pyrazin-2-yl)-5′-methoxy-2′,6-dimethyl-[4,4′-bipyridine]-3-carboxamide] | > 10000 |  | 
< 100 | < 200 | COc1cnc(C)cc1-c1cc(C)ncc1C(=O)Nc1nc2ncc(-c3ccc(OC(F)F)cn3)nc2s1 [Compound 25, N-(6-(5-(difluoromethoxy)pyridin-2-yl)thiazolo[4,5-b]pyrazin-2-yl)-5′-methoxy-2′,6-dimethyl-[4,4′-bipyridine]-3-carboxamide] | > 10000 |  | 
< 100 | < 200 | COc1ccc(Cl)cc1-c1cc(C)ncc1C(=O)Nc1nc2ncc(-c3ccc(C#N)cn3)nc2s1 [Compound 26, 4-(5-chloro-2-methoxyphenyl)-N-(6-(5-cyanopyridin-2-yl)thiazolo[4,5-b]pyrazin-2-yl)-6-methylnicotinamide] | > 10000 |  | 
< 100 | < 200 | COc1cnc(C)cc1-c1cc(C)ncc1C(=O)Nc1nc2ncc(-c3ccc(C(F)(F)F)cn3)nc2s1 [Compound 27, 5′-methoxy-2′,6-dimethyl-N-(6-(5-(trifluoromethyl)pyridin-2-yl)thiazolo[4,5-b]pyrazin-2-yl)-[4,4′-bipyridine]-3-carboxamide] | > 10000 |  | 
< 100 | 200 to 500 | COc1ccccc1-n1cncc1C(=O)Nc1nc2ncc(-c3ccc(C#N)cc3)nc2s1 [Compound 32, N-(6-(4-cyanophenyl)thiazolo[4,5-b]pyrazin-2-yl)-1-(2-methoxyphenyl)-1H-imidazole-5-carboxamide] | > 10000 |  | 
< 100 | < 200 | COc1ccc(C#N)cc1-c1cc(C#N)ncc1C(=O)Nc1nc2ncc(-c3ccc(C#N)cc3)nc2s1 [Compound 33, 6-cyano-4-(5-cyano-2-methoxyphenyl)-N-(6-(4-cyanophenyl)thiazolo[4,5-b]pyrazin-2-yl)pyridine-3-carboxamide] | > 10000 |  | 
< 100 | < 200 | COc1cccc(F)c1-c1cnccc1C(=O)Nc1nc2ncc(-c3ccc(C#N)cc3)nc2s1 [Compound 34, N-(6-(4-cyanophenyl)thiazolo[4,5-b]pyrazin-2-yl)-3-(2-fluoro-6-methoxyphenyl)pyridine-4-carboxamide] | > 10000 |  | 
< 100 | 200 to 500 | C#Cc1ccccc1-c1cc(C)ncc1C(=O)Nc1nc2ncc(-c3ccc(C#N)cc3)nc2s1 [Compound 42, N-(6-(4-cyanophenyl)thiazolo[4,5-b]pyrazin-2-yl)-4-(2-ethynylphenyl)-6-methylpyridine-3-carboxamide] | > 10000 |  | 
< 100 | < 200 | COc1ccc(C#N)cc1-c1cc(C)ncc1C(=O)Nc1nc2ncc(-c3ccc(Cl)cc3)nc2s1 [Compound 46, N-(6-(4-chlorophenyl)thiazolo[4,5-b]pyrazin-2-yl)-4-(5-cyano-2-methoxyphenyl)-6-methylpyridine-3-carboxamide] | > 10000 |  | 
< 100 | 200 to 500 | C#Cc1ccc(F)cc1-c1cc(C)ncc1C(=O)Nc1nc2ncc(-c3ccc(C#N)cc3)nc2s1 [Compound 48, N-(6-(4-cyanophenyl)thiazolo[4,5-b]pyrazin-2-yl)-4-(2-ethynyl-5-fluorophenyl)-6-methylpyridine-3-carboxamide] | > 10000 |  | 
< 100 | < 200 | COc1ccc(C#N)cc1-c1cc(C)ncc1C(=O)Nc1nc2ncc(-c3ccc(C#N)cc3)nc2s1 [Compound 58, 4-(5-cyano-2-methoxyphenyl)-N-(6-(4-cyanophenyl)thiazolo [4,5-b]pyrazin-2-yl)-6-methylpyridine-3-carboxamide] | > 10000 |  | 
< 100 | < 200 | COc1cnc(Cl)cc1-c1cc(C)ncc1C(=O)Nc1nc2ncc(-c3ccc(C#N)cn3)nc2s1 [Compound 61, N-(6-(5-cyanopyridin-2-yl)thiazolo[4,5-b]pyrazin-2-yl)-2′-chloro-5′-methoxy-6-methyl-[4,4-bipyridine]-3-carboxamide] | > 10000 |  | 
< 100 | < 200 | COc1ccc(C#N)cc1-c1cc(C)ncc1C(=O)Nc1nc2ncc(-c3ccc(Cl)cn3)nc2s1 [Compound 62, N-(6-(5-chloropyridin-2-yl)thiazolo[4,5-b]pyrazin-2-yl)-4-(5-cyano-2-methoxyphenyl)-6-methylpyridine-3-carboxamide] | > 10000 |  | 
< 100 | 200 to 500 | COc1cnc(C#N)cc1-c1cc(C)ncc1C(=O)Nc1nc2ncc(-c3ccc(Cl)cc3)nc2s1 [Compound 63, N-(6-(4-chlorophenyl)thiazolo[4,5-b]pyrazin-2-yl)-2′-cyano-5′-methoxy-6-methyl-[4,4′-bipyridine]-3-carboxamide] | > 10000 |  | 
< 100 | < 200 | COc1cnc(C)cc1-c1cc(C)ncc1C(=O)Nc1nc2ncc(-c3ccc(C(C)(C)C#N)cn3)nc2s1 [Compound 68, N-[6-[5-(1-cyano-1-methyl-ethyl)pyridin-2-yl]thiazolo[4,5-b]pyrazin-2-yl]-4-(5-methoxy-2-methylpyridine-4-yl)-6-methyl-pyridine-3-carboxamide] | > 10000 |  | 
< 100 | < 200 | COc1cnc(C2CC2)cc1-c1cc(C)ncc1C(=O)Nc1nc2ncc(-c3ccc(C#N)cc3)nc2s1 [Compound 72, N-(6-(4-cyanophenyl)thiazolo[4,5-b]pyrazin-2-yl)-2′-cyclopropyl-5′-methoxy-6-methyl-[4,4′-bipyridine]-3-carboxamide] | > 10000 |  | 

Compound | IC50 [1] [nM] | IC50 (DLD-1 BRCA2 (−/−) cells; [2]) [nM] | IC50 (DLD-1 parental cells; [3]) [nM] | IC50 (DLD-1 BRCA2 (−/−) cells; DLD-1, 168 h) [nM] | IC50 (DLD-1 parental cells; DLD-1, 168 h) [nM]
C#Cc1ccccc1-c1cnccc1C(=O)Nc1nc2ncc(-c3ccc(C#N)cc3)nc2s1 [Compound 30, N-(6-(4-cyanophenyl)thiazolo[4,5-b]pyrazin-2-yl)-3-(2-ethynylphenyl)pyridine-4-carboxamide] | < 100 |  |  | < 200 | > 10000
